Assay results taken from patent publication US20080200404A1, “Novel Antimalarial 9A-Carbamoyl-Aminoalkyl and 9A-Thiocarbamoyl-Aminoalkyl Azalides” (priority 2005, published 2008).
Converted amounts (≈) assume the structure as drawn.

Tests used:
[1] = tested on: Plasmodium falciparum clone CDC/Sierra Leone I (D-6); experiment: In vitro antimalarial [3H]-hypoxanthine incorporation serial dilution assay, D6; format: cell-based; details: Plasmodium falciparum, D6, 72 h, P. falciparum D6, 72 hours exposure; read-out: IC50 D6
Source text: (§1) The in vitro screens for intrinsic antimalarial activity were based on modifications of the procedures described by Desjardins R E, Canfield C J, Haynes J D, Chulay J D. (Quantitative assessment of antimalarial activity in vitro by a semiautomated microdilution technique. Antimicrob Agents Chemother. 1979 December; 16(6):710-8.), Chulay J D, Haynes J D, Diggs C L. (Plasmodium falciparum: Assessment of in vitro growth by [3H]hypoxanthine incorporation. Exp. Parasitol. 1983 55:138-146.), and Milhous W K, Weatherly N F, Bowdre J H, Desjardins R E. (In vitro activities of and mechanisms of resistance to antifol antimalarial drugs. Antimicrob Agents Chemother. 1985 April; 27(4):525-30.). The system was limited to the assessment of the intrinsic activity against the erythrocytic asexual life cycle (blood schizontocides). Two Plasmodium falciparum clones from CDC/Indochina III (W-2) and CDC/Sierra Leone I (D-6) (Oduola A M, Weatherly N F, Bowdre J H, Desjardins R E. Plasmodium falciparum: cloning by single-erythrocyte micromanipulation and heterogeneity in vitro. Exp Parasitol. 1988 66(1):86-95.) were used for all assays. TM91C235, a multiple drug resistant isolate from Thailand, was used for the prescreening assay. W-2 is resistant to chloroquine, quinine, and pyrimethamine and susceptible to mefloquine. D-6 tends to be more resistant to mefloquine and susceptible to chloroquine, quinine, and pyrimethamine. All documents cited in this paragraph are incorporated by reference in their entirety.
(§2) All parasites were maintained in continuous long term cultures in RPMI-1640 medium supplemented with 6% washed human A positive (A+)(erythrocytes, 25 mM Hepes, […], and 10% heat inactivated A+human plasma or ALBUMAX® (lipid-rich bovine serum albumin; Invitrogen, Carlsbad, Calif.). All cultures and assays were conducted at 37° C. under an atmosphere of 5% CO2 and 5% O2, with a balance of N2.
(§3) After the preincubation, [^3H]-hypoxanthine was added to each well of the MTP. (The assay relies on the incorporation of radiolabeled hypoxanthine by the parasites, which indicates reproduction, and inhibition of isotope incorporation was attributed to activity of known or candidate antimalarial drugs). After 72 hr of total incubation time, the MTP were frozen to lyse the erythrocytes and parasites. The parasite DNA was recovered by harvesting the lysate onto glass-fiber filter plates using a Packard FilterMate™ Cell Harvester. The radioactivity was counted on a Packard TopCount™ microplate scintillation counter. The results were recorded as counts per minutes (CPM) per well at each drug concentration divided by the arithmetic mean of the CPM from the three untreated infection parasite control wells.
The serial dilution assay was conducted using the same assay conditions and stock solution of the compound used for the preliminary screen, described above. Both the D-6 and the W-2 clones were used. The compounds were diluted two-fold over 11 different concentration ranges with a starting concentration that was based on the preliminary screen. For each drug, the concentration response profile was determined and 50% inhibitory concentrations (IC50) were determined by using a non-linear, logistic dose response analysis program. […] For each assay, the IC50 for each clone was determined against the known antimalarials chloroquine and mefloquine. These control values established the compound's relative parasite susceptibility profile compared to known antimalarials. […]
The in vitro potency of the compounds has been compared with that of azithromycin to better gauge compounds suitable for further testing. As described above, parasites were exposed for 72 hours. Data from the in vitro potency tests of azithromycin against the three parasite strains have been averaged, and these numbers have been used for identification of “active” macrolide compounds.

[2] = tested on: Plasmodium falciparum TM91C235; experiment: In vitro antimalarial [3H]-hypoxanthine incorporation assay, TM91C235; format: cell-based; details: Plasmodium falciparum; P. falciparum TM91C235 (multiple drug resistant isolate), 72 hours exposure
Source text: as §1, §2
The prescreening assay uses TM91C235 diluted at a 0.4% parasitemia in a 1% hematocrit in folic acid free and p-aminobenzoic acid free media RPMI-1640 and ALBUMAX®. One mg of the compound is typically dissolved in 100 μl of dimethyl sulfoxide (DMSO). The compound is further diluted in culture medium (FF) with ALBUMAX® for the first initial starting concentration. The rest of the stock drug solution was kept at −70° C. The isolate was preexposed, in duplicate, at three concentrations (25,000 ng/ml, 2,500 ng/ml, and 25 ng/ml) of the test compound for 48 hr in a 96-well microtiter plate (MTP) using the BIOMEK® 2000 automated laboratory workstation. Each MTP contains chloroquine as control to assess the relative activity of the compound and to monitor the response of TM91C235.
as §3
The serial dilution assay was conducted using the same assay conditions and stock solution of the compound used for the preliminary screen, described above. Both the D-6 and the W-2 clones were used. The compounds were diluted two-fold over 11 different concentration ranges with a starting concentration that was based on the preliminary screen. […]

| Compound | IC50 [1] [mg/L] | IC50 [2] [mg/L] |
| --- | --- | --- |
| CC[C@H]1OC(=O)[C@H](C)[C@@H](O[C@H]2C[C@@](C)(OC)[C@@H](O)[C@H](C)O2)[C@H](C)[C@@H](O[C@@H]2O[C@H](C)C[C@H](N(C)C)[C@H]2O)[C@](C)(O)C[C@@H](C)CN(CCCNC(=O)Nc2cccc(SC)c2)[C@H](C)[C@@H](O)[C@]1(C)O [Example 71] | 0.318 (≈ 0.332 µM) | 0.131 (≈ 0.137 µM) |
| CC[C@H]1OC(=O)[C@H](C)[C@@H](O[C@H]2C[C@@](C)(OC)[C@@H](O)[C@H](C)O2)[C@H](C)[C@@H](O[C@@H]2O[C@H](C)C[C@H](N(C)C)[C@H]2O)[C@](C)(O)C[C@@H](C)CN(CCCNC(=S)Nc2ccc(/N=N/c3ccccc3)cc2)[C@H](C)[C@@H](O)[C@]1(C)O [Example 118] | 0.111 (≈ 0.107 µM) | 0.0993 (≈ 0.0963 µM) |
| CC[C@H]1OC(=O)[C@H](C)[C@@H](O[C@H]2C[C@@](C)(OC)[C@@H](O)[C@H](C)O2)[C@H](C)[C@@H](O[C@@H]2O[C@H](C)C[C@H](N(C)C)[C@H]2O)[C@](C)(O)C[C@@H](C)CN(CCCNC(=O)Nc2ccc(F)c(F)c2)[C@H](C)[C@@H](O)[C@]1(C)O.O=CO [Example 76] | 0.298 | 0.126 |
| CCOC(=O)CCN(CCCN1C[C@H](C)C[C@@](C)(O)[C@H](O[C@@H]2O[C@H](C)C[C@H](N(C)C)[C@H]2O)[C@@H](C)[C@H](O[C@H]2C[C@@](C)(OC)[C@@H](O)[C@H](C)O2)[C@@H](C)C(=O)O[C@H](CC)[C@@](C)(O)[C@H](O)[C@H]1C)C(=S)NCCCc1ccccc1 [Example 161, 9-Deoxo-9-dihydro-9a-{N′-[β-(ethoxycarbonyl)ethyl]-N′-[γ-(phenylpropyl)thiocarbamoyl]-γ-aminopropyl}-9a-aza-9a-homoerythromycin A] | 0.142 (≈ 0.132 µM) | 0.054 (≈ 0.0505 µM) |
| CCOC(=O)CCN(CCCN1C[C@H](C)C[C@@](C)(O)[C@H](O[C@@H]2O[C@H](C)C[C@H](N(C)C)[C@H]2O)[C@@H](C)[C@H](O[C@H]2C[C@@](C)(OC)[C@@H](O)[C@H](C)O2)[C@@H](C)C(=O)O[C@H](CC)[C@@](C)(O)[C@H](O)[C@H]1C)C(=S)NCCc1ccccc1 [Example 160, 9-Deoxo-9-dihydro-9a-{N′-[β-(ethoxycarbonyl)ethyl]-N′-[β-(phenylethyl)thiocarbamoyl]-γ-aminopropyl}-9a-aza-9a-homoerythromycin A] | 0.153 (≈ 0.145 µM) | 0.0683 (≈ 0.0647 µM) |
| CC[C@H]1OC(=O)[C@H](C)[C@@H](O[C@H]2C[C@@](C)(OC)[C@@H](O)[C@H](C)O2)[C@H](C)[C@@H](O[C@@H]2O[C@H](C)C[C@H](N(C)C)[C@H]2O)[C@](C)(O)C[C@@H](C)CN(CCCN(CCC(N)=O)C(=S)NCCCc2ccccc2)[C@H](C)[C@@H](O)[C@]1(C)O [Example 167, 9-Deoxo-9-dihydro-9a-{N′-(β-amidoethyl)-N′-[γ-(phenylpropyl)thiocarbamoyl]-γ-aminopropyl}-9a-aza-9a-homoerythromycin A] | 0.127 (≈ 0.122 µM) | 0.0572 (≈ 0.055 µM) |
| CC[C@H]1OC(=O)[C@H](C)[C@@H](O[C@H]2C[C@@](C)(OC)[C@@H](O)[C@H](C)O2)[C@H](C)[C@@H](O[C@@H]2O[C@H](C)C[C@H](N(C)C)[C@H]2O)[C@](C)(O)C[C@@H](C)CN(CCCNC(=S)NC(c2ccccc2)c2ccccc2)[C@H](C)[C@@H](O)[C@]1(C)O [Example 129] | 0.222 (≈ 0.218 µM) | 0.056 (≈ 0.055 µM) |
| CC[C@H]1OC(=O)[C@H](C)[C@@H](O[C@H]2C[C@@](C)(OC)[C@@H](O)[C@H](C)O2)[C@H](C)[C@@H](O[C@@H]2O[C@H](C)C[C@H](N(C)C)[C@H]2O)[C@](C)(O)C[C@@H](C)CN(CCCNC(=O)NCC2CCCCC2)[C@H](C)[C@@H](O)[C@]1(C)O [Example 74] | 0.568 (≈ 0.609 µM) | 0.133 (≈ 0.142 µM) |
| CC[C@H]1OC(=O)[C@H](C)[C@@H](O[C@H]2C[C@@](C)(OC)[C@@H](O)[C@H](C)O2)[C@H](C)[C@@H](O[C@@H]2O[C@H](C)C[C@H](N(C)C)[C@H]2O)[C@](C)(O)C[C@@H](C)CN(CCCNC(=O)NC(C)(C)CC(C)(C)C)[C@H](C)[C@@H](O)[C@]1(C)O.O=CO [Example 78] | 0.267 | 0.182 |
| CC[C@H]1OC(=O)[C@H](C)[C@@H](O)[C@H](C)[C@@H](O[C@@H]2O[C@H](C)C[C@H](N(C)C)[C@H]2O)[C@](C)(O)C[C@@H](C)CN(CCCN(CCC#N)C(=S)NCCc2ccccc2)[C@H](C)[C@@H](O)[C@]1(C)O [Example 170] | 0.543 (≈ 0.639 µM) | 0.128 (≈ 0.151 µM) |
| CCOC(=O)CCN(CCCN1C[C@H](C)C[C@@](C)(O)[C@H](O[C@@H]2O[C@H](C)C[C@H](N(C)C)[C@H]2O)[C@@H](C)[C@H](O[C@H]2C[C@@](C)(OC)[C@@H](O)[C@H](C)O2)[C@@H](C)C(=O)O[C@H](CC)[C@@](C)(O)[C@H](O)[C@H]1C)C(=S)NCc1ccccc1 [Example 162, 9-Deoxo-9-dihydro-9a-{N′-[β-(ethoxycarbonyl)ethyl]-N′-benzylthiocarbamoyl-γ-aminopropyl]-9a-aza-9a-homoerythromycin A] | 0.104 (≈ 0.1 µM) | 0.0693 (≈ 0.0665 µM) |
| CC[C@H]1OC(=O)[C@H](C)[C@@H](O[C@H]2C[C@@](C)(OC)[C@@H](O)[C@H](C)O2)[C@H](C)[C@@H](O[C@@H]2O[C@H](C)C[C@H](N(C)C)[C@H]2O)[C@](C)(O)C[C@@H](C)CN(CCCNC(=S)Nc2ccc(OCc3ccccc3)cc2)[C@H](C)[C@@H](O)[C@]1(C)O.O=CO [Example 115] | 0.269 | 0.172 |
| CC[C@H]1OC(=O)[C@H](C)[C@@H](O[C@H]2C[C@@](C)(OC)[C@@H](O)[C@H](C)O2)[C@H](C)[C@@H](O[C@@H]2O[C@H](C)C[C@H](N(C)C)[C@H]2O)[C@](C)(O)C[C@@H](C)CN(CCCNC(=S)NCc2ccc3c(c2)CCC3)[C@H](C)[C@@H](O)[C@]1(C)O.O=CO [Example 117] | 0.329 | 0.223 |
| CCOC(=O)CCN(CCCN1C[C@H](C)C[C@@](C)(O)[C@H](O[C@@H]2O[C@H](C)C[C@H](N(C)C)[C@H]2O)[C@@H](C)[C@H](O[C@H]2C[C@@](C)(OC)[C@@H](O)[C@H](C)O2)[C@@H](C)C(=O)O[C@H](CC)[C@@](C)(O)[C@H](O)[C@H]1C)C(=O)NC(C)c1cccc2ccccc12 (stereo partly shown) [Example 163] | 0.135 (≈ 0.124 µM) | 0.0679 (≈ 0.0623 µM) |
| CC[C@H]1OC(=O)[C@H](C)[C@@H](O[C@H]2C[C@@](C)(OC)[C@@H](O)[C@H](C)O2)[C@H](C)[C@@H](O[C@@H]2O[C@H](C)C[C@H](N(C)C)[C@H]2O)[C@](C)(O)C[C@@H](C)CN(CCCNC(=O)Nc2ccc(C)cc2C)[C@H](C)[C@@H](O)[C@]1(C)O.O=CO [Example 75] | 0.479 | 0.229 |
| CC[C@H]1OC(=O)[C@H](C)[C@@H](O[C@H]2C[C@@](C)(OC)[C@@H](O)[C@H](C)O2)[C@H](C)[C@@H](O[C@@H]2O[C@H](C)C[C@H](N(C)C)[C@H]2O)[C@](C)(O)C[C@@H](C)CN(CCCNC(=S)NC2CCCCCCCCCCC2)[C@H](C)[C@@H](O)[C@]1(C)O.O=CO [Example 116] | 0.281 | 0.149 |
| CC[C@H]1OC(=O)[C@H](C)[C@@H](O[C@H]2C[C@@](C)(OC)[C@@H](O)[C@H](C)O2)[C@H](C)[C@@H](O[C@@H]2O[C@H](C)C[C@H](N(C)C)[C@H]2O)[C@](C)(O)C[C@@H](C)CN(CCCNC(=O)Nc2ccc(C)cc2)[C@H](C)[C@@H](O)[C@]1(C)O [Example 73] | 0.305 (≈ 0.33 µM) | 0.128 (≈ 0.139 µM) |
